This is an account of results in patent US8889712B2, “IAP antagonists” (Bristol-Myers Squibb Company, priority 2012, dated 2014).

Test [1] addresses T1, XIAP BIR3 (Homo sapiens, UniProt P98170).
T1 construct: His-BIR3 (241-356, XIAP)
The test can be described thus: XIAP-BIR3/SMAC Homogeneous Time Resolved Fluorescence (HTRF) Assay. It is filed as binding. In outline: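 Competition HTRF between XIAP-BIR3 and SMAC; reaction 60 min at room temperature, then anti-6×His-terbium Fab detection for a further 30 min.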

The target of test [2] is T2, XIAP BIR2-3 (Homo sapiens, UniProt P98170, C202A/C213G).
T2 construct: His-BIR2-3 (125-356, C202A/C213G, XIAP)
In words: XIAP-BIR2-3 dimeric SMAC Peptide Homogeneous Time Resolved Fluorescence (HTRF) Assay. The test is classed as binding. As for the experimental part:
B. […] Assays were performed in black, flat-bottom, 384-well plates. […] Compounds were dissolved at 3 mM in dimethylsulfoxide (DMSO) and evaluated at eleven serially diluted concentrations. IC50 and Ki values were derived by non-linear regression analysis.
Background: TR-FRET usually uses a lanthanide donor and a delayed reading to cut background.

The mark [3] stands for this setting: 1 nM N-His-BIR3 (241-356, XIAP), 5 nM fluorescein labeled SMAC peptide, HTRF signal, read-out: XIAP BIR3 IC50.
Where [4] appears, read: 0.5 nM N-His-BIR2-3 (125-356, C202A/C213G, XIAP), 20 nM fluorescein labeled dimeric SMAC peptide, HTRF signal, read-out: XIAP BIR2-3 IC50.

pIC50: −log10 of the molar value. Where two headings read alike, the source gives them in different places.

T1 sequence (P98170 241-356): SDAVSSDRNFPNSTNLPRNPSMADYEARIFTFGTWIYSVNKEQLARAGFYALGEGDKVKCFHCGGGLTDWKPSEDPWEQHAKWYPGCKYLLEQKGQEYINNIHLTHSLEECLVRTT
T2 sequence (P98170 125-356 C202A/C213G): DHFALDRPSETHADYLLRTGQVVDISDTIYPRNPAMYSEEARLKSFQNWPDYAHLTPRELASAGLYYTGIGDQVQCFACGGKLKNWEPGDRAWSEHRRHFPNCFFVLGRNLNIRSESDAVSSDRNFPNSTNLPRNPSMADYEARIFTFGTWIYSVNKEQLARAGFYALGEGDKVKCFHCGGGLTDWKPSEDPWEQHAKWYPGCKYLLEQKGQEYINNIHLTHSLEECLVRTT

As usually defined, the pIC50 is the IC50 on a negative log10 scale, so that one unit is a factor of ten. Turning to `CN[C@@H](C)C(=O)N[C@H](C(=O)N1C[C@@H](c2ccc3c(c2)CN(C(=O)[C@@H](NC(=O)[C@H](C)NC)C(C)(C)C)[C@H](C(=O)N[C@@H]2CCCc4ccccc42)C3)C[C@H]1C(=O)N[C@@H](Cc1ccccc1)C(=O)NC(C)C)C(C)(C)C` [Example 56, (S)-2-((S)-3,3-Dimethyl-2-((S)-2-(methylamino)propanamido)butanoyl)-7-((3R,5S)-1-((S)-3,3-dimethyl-2-((S)-2-(methylamino)propanamido)butanoyl)-5-(((S)-1-(isopropylamino)-1-oxo-3-phenylpropan-2-yl)carbamoyl)pyrrolidin-3-yl)-N-((R)-1,2,3,4-tetrahydronaphthalen-1-yl)-1,2,3,4-tetrahydroisoquinoline-3-carboxamide], the pIC50 in test [1] was 8.06; in test [2], 8.70.

In the case of `CN[C@@H](C)C(=O)N[C@H](C(=O)N1C[C@@H](c2ccc3c(c2)CN(C(=O)[C@@H](NC(=O)[C@H](C)NC)C(C)(C)C)[C@H](C(=O)N[C@@H]2CCCc4ccccc42)C3)C[C@H]1C(=O)N[C@@H](Cc1ccccc1)C(=O)Nc1ccc(-c2cnco2)cc1)C(C)(C)C` [Example 57, (S)-2-((S)-3,3-Dimethyl-2-((S)-2-(methylamino)propanamido)butanoyl)-7-((3R,5S)-1-((S)-3,3-dimethyl-2-((S)-2-(methylamino)propanamido)butanoyl)-5-(((S)-1-((4-(oxazol-5-yl)phenyl)amino)-1-oxo-3-phenylpropan-2-yl)carbamoyl)pyrrolidin-3-yl)-N-((R)-1,2,3,4-tetrahydronaphthalen-1-yl)-1,2,3,4-tetrahydroisoquinoline-3-carboxamide], the pIC50 in test [1] (setting [3]) was 8.00; in test [2] (setting [4]) it was 8.59.

As for `CN[C@@H](C)C(=O)N[C@H](C(=O)N1C[C@@H](c2ccc3c(c2)CN(C(=O)[C@@H](NC(=O)[C@H](C)NC)C(C)(C)C)[C@H](C(=O)N[C@@H]2CCCc4ccccc42)C3)C[C@H]1C(=O)N[C@@H](Cc1ccccc1)C(=O)Nc1cccc(-c2cnco2)c1)C(C)(C)C` [Example 58, (S)-2-((S)-3,3-Dimethyl-2-((S)-2-(methylamino)propanamido)butanoyl)-7-((3R,5S)-1-((S)-3,3-dimethyl-2-((S)-2-(methylamino)propanamido)butanoyl)-5-(((S)-1-((3-(oxazol-5-yl)phenyl)amino)-1-oxo-3-phenylpropan-2-yl)carbamoyl)pyrrolidin-3-yl)-N-((R)-1,2,3,4-tetrahydronaphthalen-1-yl)-1,2,3,4-tetrahydroisoquinoline-3-carboxamide], the figures for the negative logarithm of the IC50 (pIC50) in test [1] (setting [3]) and in test [2] (setting [4]) were 8.12 and 8.64, respectively.

As for `CN[C@@H](C)C(=O)N[C@H](C(=O)N1C[C@@H](c2ccc3c(c2)CN(C(=O)[C@@H](NC(=O)[C@H](C)NC)C(C)(C)C)[C@H](C(=O)N[C@@H]2CCCc4ccccc42)C3)C[C@H]1C(=O)N[C@@H](Cc1ccccc1)C(=O)Nc1cccc(C#N)c1)C(C)(C)C` [Example 59, (S)-7-((3R,5S)-5-(((S)-1-((3-Cyanophenyl)amino)-1-oxo-3-phenylpropan-2-yl)carbamoyl)-1-((S)-3,3-dimethyl-2-((S)-2-(methylamino)propanamido)butanoyl)pyrrolidin-3-yl)-2-((S)-3,3-dimethyl-2-((S)-2-(methylamino)propanamido)butanoyl)-N-((R)-1,2,3,4-tetrahydronaphthalen-1-yl)-1,2,3,4-tetrahydroisoquinoline-3-carboxamide], the negative-log IC50 (pIC50) in test [1] (setting [3]) was 8.17; in test [2] (setting [4]), 8.66.

As for `CN[C@@H](C)C(=O)N[C@H](C(=O)N1C[C@@H](c2ccc3c(c2)CN(C(=O)[C@@H](NC(=O)[C@H](C)NC)C(C)(C)C)[C@H](C(=O)N[C@@H]2CCCc4ccccc42)C3)C[C@H]1C(=O)N[C@@H](Cc1ccccc1)C(=O)NCCOC)C(C)(C)C` [Example 61, (S)-2-((S)-3,3-Dimethyl-2-((S)-2-(methylamino)propanamido)butanoyl)-7-((3R,5S)-1-((S)-3,3-dimethyl-2-((S)-2-(methylamino)propanamido)butanoyl)-5-(((S)-1-((2-methoxyethyl)amino)-1-oxo-3-phenylpropan-2-yl)carbamoyl)pyrrolidin-3-yl)-N-((R)-1,2,3,4-tetrahydronaphthalen-1-yl)-1,2,3,4-tetrahydroisoquinoline-3-carboxamide], the pIC50 in test [1] (setting [3]) is 7.66; in test [2] (setting [4]), 8.47.

Regarding `CCN(CC)C(=O)[C@H](Cc1ccccc1)NC(=O)[C@@H]1C[C@H](c2ccc3c(c2)CN(C(=O)[C@@H](NC(=O)[C@H](C)NC)C(C)(C)C)[C@H](C(=O)N[C@@H]2CCCc4ccccc42)C3)CN1C(=O)[C@@H](NC(=O)[C@H](C)NC)C(C)(C)C` [Example 62, (S)-7-((3R,5S)-5-(((S)-1-(Diethylamino)-1-oxo-3-phenylpropan-2-yl)carbamoyl)-1-((S)-3,3-dimethyl-2-((S)-2-(methylamino)propanamido)butanoyl)pyrrolidin-3-yl)-2-((S)-3,3-dimethyl-2-((S)-2-(methylamino)propanamido)butanoyl)-N-((R)-1,2,3,4-tetrahydronaphthalen-1-yl)-1,2,3,4-tetrahydroisoquinoline-3-carboxamide], the values for the pIC50 in test [1] and in test [2] were 8.04 and 8.72, respectively.

As for `CN[C@@H](C)C(=O)N[C@H](C(=O)N1C[C@@H](c2ccc3c(c2)CN(C(=O)[C@@H](NC(=O)[C@H](C)NC)C(C)(C)C)[C@H](C(=O)N[C@@H]2CCCc4ccccc42)C3)C[C@H]1C(=O)N[C@@H](Cc1ccccc1)C(=O)N(C1CC1)C1CC1)C(C)(C)C` [Example 63, (S)-7-((3R,5S)-5-(((S)-1-(Dicyclopropylamino)-1-oxo-3-phenylpropan-2-yl)carbamoyl)-1-((S)-3,3-dimethyl-2-((S)-2-(methylamino)propanamido)butanoyl)pyrrolidin-3-yl)-2-((S)-3,3-dimethyl-2-((S)-2-(methylamino)propanamido)butanoyl)-N-((R)-1,2,3,4-tetrahydronaphthalen-1-yl)-1,2,3,4-tetrahydroisoquinoline-3-carboxamide], the pIC50 was 7.78 in test [1] (setting [3]) and 8.52 in test [2] (setting [4]).

As for `CN[C@@H](C)C(=O)N[C@H](C(=O)N1C[C@@H](c2ccc3c(c2)CN(C(=O)[C@@H](NC(=O)[C@H](C)NC)C(C)(C)C)[C@H](C(=O)N[C@@H]2CCCc4ccccc42)C3)C[C@H]1C(=O)N[C@@H](Cc1ccccc1)C(=O)NC1CC1)C(C)(C)C` [Example 64, (S)-7-((3R,5S)-5-(((S)-1-(Cyclopropylamino)-1-oxo-3-phenylpropan-2-yl)carbamoyl)-1-((S)-3,3-dimethyl-2-((S)-2-(methylamino)propanamido)butanoyl)pyrrolidin-3-yl)-2-((S)-3,3-dimethyl-2-((S)-2-(methylamino)propanamido)butanoyl)-N-((R)-1,2,3,4-tetrahydronaphthalen-1-yl)-1,2,3,4-tetrahydroisoquinoline-3-carboxamide], the negative-log IC50 (pIC50) is 7.59 in test [1] (setting [3]) and 8.42 in test [2] (setting [4]).

Consider `CN[C@@H](C)C(=O)N[C@H](C(=O)N1C[C@@H](c2ccc3c(c2)CN(C(=O)[C@@H](NC(=O)[C@H](C)NC)C(C)(C)C)[C@H](C(=O)N[C@@H]2CCCc4ccccc42)C3)C[C@H]1C(=O)N[C@@H](Cc1ccccc1)C(=O)Nc1ccc(-n2cncn2)cc1)C(C)(C)C` [Example 65, (S)-7-((3R,5S)-5-(((S)-1-((4-(1H-1,2,4-Triazol-1-yl)phenyl)amino)-1-oxo-3-phenylpropan-2-yl)carbamoyl)-1-((S)-3,3-dimethyl-2-((S)-2-(methylamino)propanamido)butanoyl)pyrrolidin-3-yl)-2-((S)-3,3-dimethyl-2-((S)-2-(methylamino)propanamido)butanoyl)-N-((R)-1,2,3,4-tetrahydronaphthalen-1-yl)-1,2,3,4-tetrahydroisoquinoline-3-carboxamide], for which the pIC50 was 8.27 in test [1] (setting [3]) and 8.80 in test [2] (setting [4]).

With `CN[C@@H](C)C(=O)N[C@H](C(=O)N1C[C@@H](c2ccc3c(c2)CN(C(=O)[C@@H](NC(=O)[C@H](C)NC)C(C)(C)C)[C@H](C(=O)N[C@@H]2CCCc4ccccc42)C3)C[C@H]1C(=O)N[C@@H](Cc1ccccc1)C(=O)NCCc1ccccc1)C(C)(C)C` [Example 66, (S)-2-((S)-3,3-Dimethyl-2-((S)-2-(methylamino)propanamido)butanoyl)-7-((3R,5S)-1-((S)-3,3-dimethyl-2-((S)-2-(methylamino)propanamido)butanoyl)-5-(((S)-1-oxo-1-(phenethylamino)-3-phenylpropan-2-yl)carbamoyl)pyrrolidin-3-yl)-N-((R)-1,2,3,4-tetrahydronaphthalen-1-yl)-1,2,3,4-tetrahydroisoquinoline-3-carboxamide], the pIC50 in test [1] was 7.88; in test [2] it was 8.51.

`CN[C@@H](C)C(=O)N[C@H](C(=O)N1C[C@@H](c2ccc3c(c2)CN(C(=O)[C@@H](NC(=O)[C@H](C)NC)C(C)(C)C)[C@H](C(=O)N[C@@H]2CCCc4ccccc42)C3)C[C@H]1C(=O)N[C@@H](Cc1ccccc1)C(=O)NCc1nccs1)C(C)(C)C` [Example 67, (S)-2-((S)-3,3-Dimethyl-2-((S)-2-(methylamino)propanamido)butanoyl)-7-((3R,5S)-1-((S)-3,3-dimethyl-2-((S)-2-(methylamino)propanamido)butanoyl)-5-(((S)-1-oxo-3-phenyl-1-((thiazol-2-ylmethyl)amino)propan-2-yl)carbamoyl)pyrrolidin-3-yl)-N-((R)-1,2,3,4-tetrahydronaphthalen-1-yl)-1,2,3,4-tetrahydroisoquinoline-3-carboxamide]: the pIC50 in test [1] (setting [3]) is 8.03; in test [2] (setting [4]), 8.68.
